Reference: patent publication US20070128217A1 (priority 2003, published 2007)

How the values were obtained:
[1] = system: recombinant human anti-SARS-CoV antibody 03-018; assay type: binding; set-up: Binding of antibody 03-018 to linear peptides of the N protein of SARS-CoV Urbani / Binding of antibody 03-018 to looped/cyclic peptides of the N protein of SARS-CoV Urbani: unit not given here
[2] = system: control sera (pooled serum of ten healthy LUMC hospital workers; commercial negative donor pooled serum from the Dutch bloodbank); assay type: binding, human; set-up: Binding of Control serum LUMC to linear peptides / Binding of Control serum Blood-bank to linear peptides / Binding of Control serum LUMC to looped peptides / Binding of Control Serum Blood-Bank to Looped peptides / Binding of Control serum LUMC to linear peptides of the protein M of SARS-CoV Urbani / Binding of Control serum Blood-bank to linear peptides of the protein M of SARS-CoV Urbani / Binding of Control serum LUMC to looped peptides of the protein M of SARS-CoV Urbani / Binding of Control Serum Blood-Bank to Looped peptides of the protein M of SARS-CoV Urbani: unit not given here
[3] = system: rabbit serum obtained by immunizing a rabbit with the SARS-CoV strain Frankfurt 1; assay type: binding; set-up: Binding of a rabbit serum to linear peptides / Binding of a rabbit serum to looped peptides / Rabbit serum linear peptides / Rabbit serum looped peptides / Binding of a rabbit serum to linear peptides of protein N of SARS-CoV Urbani (Rabbit serum linear peptides) / Binding of a rabbit serum to looped/cyclic peptides of protein N of SARS-CoV Urbani (Rabbit serum looped peptides): unit not given here
[4] = system: antibodies in sera from SARS patients (sera 1a, 1b, 2, 6, 37, 62, London, SARS-yellow, SARS-green); assay type: binding, human; set-up: Binding of serum 6 to linear peptides of protein X1 of SARS-CoV Urbani / Binding of serum 37 to linear peptides of protein X1 of SARS-CoV Urbani / Binding of serum 6 to looped/cyclic peptide (PEPSCAN-ELISA) / Binding of serum 37 to looped/cyclic peptide (PEPSCAN-ELISA) / Binding of serum 37 to looped/cyclic peptides of protein X1 of SARS-CoV Urbani / Binding of serum 6 to linear peptides of protein X2 / Binding of serum 37 to linear peptides of protein X2 / Binding of serum 37 to looped/cyclic peptides of protein X2 of SARS-CoV Urbani / Binding of serum 6 to linear peptides of protein M of SARS-CoV Urbani / Binding of serum 37 to linear peptides of protein M of SARS-CoV Urbani / Binding of serum 6 to looped/cyclic peptides of protein M of SARS-CoV Urbani / Binding of serum 37 to looped/cyclic peptides of protein M of SARS-CoV Urbani / Binding of serum 6 to linear peptides of protein X3 of SARS-CoV Urbani / Binding of serum 37 to linear peptides of protein X3 of SARS-CoV Urbani / Binding of serum 37 to looped/cyclic peptides of protein X3 of SARS-CoV Urbani / Binding of serum 6 to linear peptides of protein X4 of SARS-CoV Urbani / Binding of serum 37 to linear peptides of protein X4 of SARS-CoV Urbani / Binding of serum 37 to looped/cyclic peptides of protein X4 of SARS-CoV Urbani / Binding of serum 6 to linear peptides of protein X5 of SARS-CoV Urbani / Binding of serum 37 to linear peptides of protein X5 of SARS-CoV Urbani / Binding of serum 37 to looped/cyclic peptides of protein X5 of SARS-CoV Urbani / Binding of serum 6 to linear peptides of protein N of SARS-CoV Urbani / Binding of serum 37 to linear peptides of protein N of SARS-CoV Urbani / Binding of serum 6 to linear peptide (PEPSCAN-ELISA) / Binding of serum 1a to looped/cyclic peptides of protein N of SARS-CoV Urbani / Binding of serum 1b to looped/cyclic peptides of protein N of SARS-CoV Urbani / Binding of serum 2 to looped/cyclic peptides of protein N of SARS-CoV Urbani / Binding of serum 6 to looped/cyclic peptides of protein N of SARS-CoV Urbani / Binding of serum 37 to looped/cyclic peptides of protein N of SARS-CoV Urbani / Binding of serum 62 to looped/cyclic peptides of protein N of SARS-CoV Urbani / Binding of serum London to looped/cyclic peptides of protein N of SARS-CoV Urbani / Binding of serum SARS-green to looped/cyclic peptides of protein N of SARS-CoV Urbani: unit not given here

Sequence	Binding of antibody 03-018 to linear peptides of the N protein of SARS-CoV Urbani [1]	Binding of antibody 03-018 to looped/cyclic peptides of the N protein of SARS-CoV Urbani [1]	Binding of Control Serum Blood-Bank to Looped peptides [2]	Binding of Control serum Blood-bank to linear peptides [2]	Binding of Control serum LUMC to linear peptides [2]	Binding of Control serum LUMC to looped peptides [2]	Binding of a rabbit serum to linear peptides of protein N of SARS-CoV Urbani (Rabbit serum linear peptides) [3]	Binding of a rabbit serum to looped/cyclic peptides of protein N of SARS-CoV Urbani (Rabbit serum looped peptides) [3]	Binding of serum 1a to looped/cyclic peptides of protein N of SARS-CoV Urbani [4]	Binding of serum 1b to looped/cyclic peptides of protein N of SARS-CoV Urbani [4]	Binding of serum 2 to looped/cyclic peptides of protein N of SARS-CoV Urbani [4]	Binding of serum 6 to looped/cyclic peptides of protein N of SARS-CoV Urbani [4]	Binding of serum 37 to looped/cyclic peptides of protein N of SARS-CoV Urbani [4]	Binding of serum 62 to looped/cyclic peptides of protein N of SARS-CoV Urbani [4]	Binding of serum London to looped/cyclic peptides of protein N of SARS-CoV Urbani [4]	Binding of serum SARS-green to looped/cyclic peptides of protein N of SARS-CoV Urbani [4]	Binding of serum SARS-yellow to looped/cyclic peptides of protein N of SARS-CoV Urbani [4]	Recognition of the peptide by sera of SARS-CoV infected individuals, and form (linear, looped/cyclic) in which it is recognized [4]	Recognition of the peptide by the rabbit serum [3]
AAEASKKPRQKRTAT	0.1	0.2	0.5	0.8	0.9	0.5	0.3	0.5	0.2	0.1	0.2	0.1	0.4	0.3	0.3	0.1	0.2	recognized in linear form	–
LQLPQGTTLPKGFYA	0.1	0.2	0.5	1.0	0.8	0.5	0.2	1.0	–	–	–	–	–	–	–	–	–	–	–
MASGGGETALALLLL	0.1	0.3	0.7	0.7	0.6	0.9	0.2	1.1	–	–	–	–	–	–	–	–	–	–	–
NAATVLQLPQGTTLP	0.1	0.2	0.6	0.7	0.5	0.4	0.2	0.0	–	–	–	–	–	–	–	–	–	–	–
PARMASGGGETALAL	0.1	0.3	0.7	1.0	0.8	0.9	0.2	0.7	–	–	–	–	–	–	–	–	–	–	–
PQGTTLPKGFYAEGS	0.1	0.2	0.6	0.7	0.6	0.6	0.1	0.5	–	–	–	–	–	–	–	–	–	–	–
RMASGGGETALALLL	0.1	0.3	0.8	0.6	0.5	0.8	0.2	0.4	–	–	–	–	–	–	–	–	–	–	–
RQKRTATKQYNVTQA	0.1	0.2	0.9	0.9	0.8	0.8	–	–	–	–	–	–	–	–	–	–	–	–	recognized
SPARMASGGGETALA	0.1	0.1	0.1	0.9	0.8	0.2	0.2	0.0	–	–	–	–	–	–	–	–	–	–	–
TATKQYNVTQAFGRR	0.1	0.3	0.9	0.8	0.8	1.0	–	–	–	–	–	–	–	–	–	–	–	–	recognized
TTLPKGFYAEGSRGG	0.1	0.2	0.6	0.6	0.7	0.5	0.2	0.4	–	–	–	–	–	–	–	–	–	–	–
